Data set [1] concerns the target T1, human-mouse chimeric GPR119 (Homo sapiens, UniProt Q8TDV5, A235T/C313R/C323Y/E253K/F304I/F307L/G211A/G245S/H255C/K284R/L224V/L258Q/L288Q/L301F/P218V/P318T/Q252H/R262K/S214P/S219N/S228A/S309P/S322A/T217S/T239S/V227I/V300F).
T1 construct: the first 198 amino acids of human GPR119; the C-terminal 137 amino acids of the mouse receptor; expressed in transfected cells
T1 sequence (Q8TDV5 with tags, fused parts or gaps G211A/S214P/T217S/P218V/S219N/L224V/V227I/S228A/A235T/T239S/G245S/Q252H/E253K/H255C/L258Q/R262K/K284R/L288Q/V300F/L301F/F304I/F307L/S309P/C313R/P318T/S322A/C323Y): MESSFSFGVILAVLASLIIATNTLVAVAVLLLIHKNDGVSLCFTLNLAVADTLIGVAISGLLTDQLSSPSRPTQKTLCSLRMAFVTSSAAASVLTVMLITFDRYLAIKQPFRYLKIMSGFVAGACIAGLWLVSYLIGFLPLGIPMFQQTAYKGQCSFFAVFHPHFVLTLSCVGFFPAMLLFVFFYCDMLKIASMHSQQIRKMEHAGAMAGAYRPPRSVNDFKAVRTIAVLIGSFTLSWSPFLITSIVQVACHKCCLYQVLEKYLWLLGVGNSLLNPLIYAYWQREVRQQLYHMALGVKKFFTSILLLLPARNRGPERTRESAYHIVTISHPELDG
Briefly: Tet-inducible cAMP assay (cAMP accumulation, HTRF). The class given is cell-based. The protocol:
The in vitro modulation of recombinant human GPR119 was determined as follows.
A human-mouse chimeric GPR119 expression construct encoding 3 copies of the FLAG epitope tag, the first 198 amino acids of human GPR119 and the C-terminal 137 amino acids of the mouse receptor was cloned into a tetracycline inducible vector pcDNA5/FRT/TO (Invitrogen #V6520-20), which includes a hygromycin-resistance marker. Tightly controlled receptor expression was achieved by stable integration of this construct into the genome of a specific host cell line, Flp-In-T-Rex-HEK293, expressing the tetracycline repressor (Invitrogen). Once a stable hygromycin-resistant cell line was generated, the cells were maintained at 37° C. in a humidified 5% CO2 atmosphere in culture medium consisting of Dulbecco's modified Eagle's medium (DMEM; Invitrogen #11960) supplemented with 2 mM L-glutamine, 10% fetal bovine serum, 200 μg/ml hygromycin B, and 15 μg/ml blasticidin.
Forty-eight hours prior to the cAMP accumulation assay, cells stably expressing the chimeric human/mouse GPR119 construct were seeded at a density of 4×10^3 cells/well in 384 well poly-D-lysine coated solid white plates (BD #35-6661) and grown at 37° C. in a humidified 5% CO2 atmosphere in culture medium supplemented with 1 μg/ml tetracycline to induce expression of the receptor. On the day of the assay, medium was removed and cells were incubated for 50 min. at 37° C. in a humidified 5% CO2 atmosphere in 20 μl/well of assay buffer (phosphate-buffered saline with Ca^2+ and Mg^2+, 12 mM glucose, 0.1 mM isobutyl-methyl-xanthine, 0.1% fatty-acid free bovine serum albumin) with the desired concentration of compound added from a concentrated stock dissolved in dimethyl sulfoxide (DMSO) to give a final concentration of 1% DMSO in the assay. cAMP accumulation was measured using the CisBio homogeneous time resolved fluorescence (HTRF) assay kit (#62AM2PEC) following the manufacturer's protocol. Briefly, 10 μl each of the cAMP-HTRF fluorescence detection reagents were added to each well, and the samples were incubated for 40 min. at room temperature. Fluorescence was excited at 320 nm and measured at 665 and 620 nm using the Envision instrument (Perkin Elmer), the fluorescence ratio of 665/620 was calculated and converted to nanomolar concentrations of cAMP in each well by interpolation from a cAMP standard curve. The concentration-response curves and EC50 values were calculated with a four parameter logistic curve fit equation utilizing Excel/XLfit software (Microsoft and IDBS). The EC50 value was calculated as the concentration of agonist which increased the cAMP concentration to a value halfway between the baseline and the maximum.
Compounds of the present invention were tested in the Tet-inducible cAMP assay described immediately above and the results shown in Table 5 below were obtained.

The nature of a further data set: in vitro. The conditions noted are these: human, microsomes, pH 7.4.
For a further data set, the system named is male C57BL/6J mice. Description: Mouse oral glucose tolerance test. The class given is in vivo. Particulars: for Minimally efficacious Dose / Glucose Lowering: oral; for Minimally efficacious Dose: given 60 min before glucose load (2 g/kg), oGTT in C57BL/6J mice; for Glucose Lowering: plasma glucose AUC change vs vehicle at the minimally efficacious dose. The protocol: Mouse Oral Glucose Tolerance Test
Twenty four (24) male C57BL/6J mice (8-10 weeks old, average weight 28 g) were randomized into 4 groups (1 mouse/cage) of 6 mice per group based on fed plasma glucose and body weight. Prior to initiating the study, mice were fasted overnight and the next morning they were weighed and placed in the experimental lab. After 30 min in the environment, the mice were bled via tail tip at −60 min and immediately given their first oral administration of vehicle (40% PEG400, 10% Cremophor EL, 50% water) or compound solutions (5 ml/kg). At time 0 the mice were bled and given 50% glucose (2 g/kg) to initiate the oral glucose tolerance test (oGTT). The mice were bled 30, 60 and 120 min after the glucose load. Blood samples were drawn into potassium EDTA, placed on ice during the study and subsequently centrifuged for 10 min at 3000 rpm at 4° C. Plasma samples were diluted 11-fold for glucose analysis in the COBAS MIRA® System (Roche Diagnostics). Area under the curve was calculated from the plasma glucose time course data using the trapezoid rule with fasting plasma glucose as the baseline (GraphPad Prism Software). The statistical significance of the changes in the glucose AUCs resulting from the different treatments was determined by one-way ANOVA followed by Dunnett's test using the vehicle group as the control (JMP software, release 5.1.2).
Find below in Table 6 data for compared compounds (See WO 2009/012275 A1).

Data set [2] is described as follows: Metabolic stability in liver microsomes test. Particulars: human, pH 7.4.
Description: (§1) Metabolic Stability in Liver Microsomes Test
(§2) Human liver microsomes were purchased from BD-Biosciences (Woburn, Mass.). The test compound was received as a 3.5 mM stock solution in 100 percent dimethyl sulfoxide (“DMSO”, Sigma Aldritch). […] The test compound, β-nicotinamide adenine dinucleotide phosphate (“NADPH”, AppliChem Inc.) and liver microsome solutions are combined for incubation in three steps:
(§3) 1) 450 μl of liver microsome suspension, protein concentration of 1.1 mg/ml in 100 mM sodium (+)/phosphate (“NaPi”, pH 7.4, Sigma Aldritch) buffer, 5 mM magnesium chloride (“MgCl2, Sigma Aldritch) buffer, is pre-warmed at 37° C.;
(§4) 3) The reaction is initiated by the addition of 50 μl of pre-warmed 10 mM NADPH solution in 100 mM NaPi, pH 7.4.
(§5) Reaction components are mixed well and then 65 μl are immediately transferred into 130 μl of quench/stop solution (zero-time point, T0). […] ACN containing Internal Standard (100 ng/ml), is used as the quench solution to terminate metabolic reactions. The quenched mixtures are centrifuged at 1500 rpm (˜500×g) in an Allegra X-12 centrifuge, SX4750 rotor (Beckman Coulter Inc., Fullerton, Calif.) for fifteen minutes to pellet denatured microsomes. A volume of 90 μl of supernatant extract, containing the mixture of parent compound and its metabolites, is then transferred to a separate 96-well plate for LC/MS-MS analysis to determine the percent of parent compound that is remaining in the mixture. Peak integration is performed on all samples using the Hepatic Clearance Calculator of QuickCalc by Gubbs, Inc. The percent remaining calculation is performed by comparing the LC-MS/MS peak areas from the samples at each time point to those from the T0 samples for each compound.
[3] abbreviates: Flp-In-T-Rex-HEK293 cells expressing chimeric human/mouse GPR119, cAMP accumulation, read-out: GPR119 EC50.

SMILES strings stand for the structures. Where two headings read alike, the source gives them in different places.

Description for in vitro: as §1, §2, §3, §4, §5

In the case of `CCS(=O)(=O)c1ccc(-n2cc(Cl)c(OC3CCN(c4ncc(Cl)cn4)CC3)cc2=O)c(F)c1` [Example 11, 5-Chloro-4-(1-(5-chloropyrimidin-2-yl)piperidin-4-yloxy)-1-(4-(ethylsulfonyl)-2-fluorophenyl)pyridin-2(1H)-one], the 50% effective concentration (EC50) in data set [1] (setting [3]) is 6 nM. Besides, the half-life at 0.5 µM in the data set “in vitro” was 0.85 h.

As for `CS(=O)(=O)c1ccc(-n2cc(Cl)c(OC3CCN(c4ncc(C(F)(F)F)cn4)CC3)cc2=O)cc1` [Example 1, 5-Chloro-1-(4-(methylsulfonyl)phenyl)-4-(1-(5-(trifluoromethyl)pyrimidin-2-yl)piperidin-4-yloxy)pyridin-2(1H)-one], the EC50 in data set [1] amounted to 8 nM. This compound also returned a reduction in glucose in the data set with male C57BL/6J mice (at the stated dose (0.1 mg/kg Example 1; 0.3 mg/kg Example 224 of WO 2009/012275 A1)) of 24%. Moreover, in the data set with male C57BL/6J mice, the “Minimally efficacious Dose” value came to 0.1 mg/kg and the “Glucose Lowering” value is listed as −24%. Also, the half-life at 0.5 µM in “in vitro” is 3 h.

On to `CCS(=O)(=O)c1ccc(-n2cc(Cl)c(OC3CCN(c4ncc(C(F)(F)F)cn4)CC3)cc2=O)c(F)c1` [Example 8, 5-Chloro-1-(4-(ethylsulfonyl)-2-fluorophenyl)-4-(1-(5-(trifluoromethyl)pyrimidin-2-yl)piperidin-4-yloxy)pyridin-2(1H)-one], for which the EC50 in data set [1] (setting [3]) is 8 nM. Besides, in the data set with male C57BL/6J mice, the “Minimally efficacious Dose” value is given as 0.03 mg/kg and the “Glucose Lowering” value is given as −26%. The half-life at 0.5 µM in the data set “in vitro” worked out at 2 h.

Take `CS(=O)(=O)c1ccc(-n2cc(Cl)c(OC3CCN(c4ncc(Cl)cn4)CC3)cc2=O)cc1` [Example 4, 5-Chloro-4-(1-(5-chloropyrimidin-2-yl)piperidin-4-yloxy)-1-(4-(methylsulfonyl)phenyl)pyridin-2(1H)-one]: it took 5 nM to reach a half-maximal effect in data set [1] (EC50). In the data set with male C57BL/6J mice, the “Minimally efficacious Dose” value is recorded as 0.03 mg/kg and the “Glucose Lowering” value is listed as −24%. This compound gave a half-life at 0.5 µM in data set [2] of 0.95 h.

Turning to `CS(=O)(=O)c1ccc(-n2cc(Cl)c(OC3CCN(c4ncc(C(F)(F)F)cn4)CC3)cc2=O)cc1F` [Example 3, 5-Chloro-1-(3-fluoro-4-(methylsulfonyl)phenyl)-4-(1-(5-(trifluoromethyl)pyrimidin-2-yl)piperidin-4-yloxy)pyridin-2(1H)-one], it took 7 nM to reach a half-maximal effect in data set [1] (EC50). Moreover, in the data set on male C57BL/6J mice, the “Minimally efficacious Dose” value was 0.1 mg/kg and the “Glucose Lowering” value was −28%. In the data set “in vitro”, this compound showed a half-life at 0.5 µM of 1.8 h.

Consider `CCS(=O)(=O)c1ccc(-n2cc(Cl)c(OC3CCN(c4ncc(C(F)(F)F)cn4)CC3)cc2=O)cc1F` [Example 9, 5-Chloro-1-(4-(ethylsulfonyl)-3-fluorophenyl)-4-(1-(5-(trifluoromethyl)pyrimidin-2-yl)piperidin-4-yloxy)pyridin-2(1H)-one], for which the concentration for a half-maximal effect (EC50) in data set [1] (setting [3]) amounted to 13 nM. The same compound yielded a half-life at 0.5 µM in “in vitro” of 1.47 h.

For the compound `CS(=O)(=O)c1ccc(-n2cc(Cl)c(OC3CCN(c4ncc(C(F)(F)F)cn4)CC3)cc2=O)c(F)c1` [Example 2, 5-Chloro-1-(2-fluoro-4-(methylsulfonyl)phenyl)-4-(1-(5-(trifluoromethyl)pyrimidin-2-yl)piperidin-4-yloxy)pyridin-2 (1H)-one], in data set [1], the EC50 amounted to 12 nM. Moreover, in the data set with male C57BL/6J mice, the “Minimally efficacious Dose” value is listed as 0.1 mg/kg and the “Glucose Lowering” value is on record as −29%. Moreover, the half-life at 0.5 µM in the data set “in vitro” is 2.45 h.

Turning to `CS(=O)(=O)c1ccc(-n2cc(Cl)c(OC3CCN(c4ncc(Cl)cn4)CC3)cc2=O)c(F)c1` [Example 5, 5-Chloro-4-(1-(5-chloropyrimidin-2-yl)piperidin-4-yloxy)-1-(2-fluoro-4-(methylsulfonyl)phenyl)pyridin-2(1H)-one], a half-maximal effect in data set [1] (EC50) was put at 3 nM. Besides, in the data set with male C57BL/6J mice, the “Minimally efficacious Dose” value is on record as 0.06 mg/kg and the “Glucose Lowering” value was −29%. The half-life at 0.5 µM in “in vitro” is 1.75 h.

Consider `CCS(=O)(=O)c1ccc(-n2cc(Cl)c(OC3CCN(c4ncc(Cl)cn4)CC3)cc2=O)cc1` [Example 10, 5-Chloro-4-(1-(5-chloropyrimidin-2-yl)piperidin-4-yloxy)-1-(4-(ethylsulfonyl)phenyl)pyridin-2(1H)-one], for which the 50% effective concentration (EC50) in data set [1] (setting [3]) was determined as 2 nM. In “in vitro”, this compound gave a half-life at 0.5 µM of 0.583 h.

Compound `CS(=O)(=O)c1ccc(-n2cc(Cl)c(OC3CCN(c4ncc(Cl)cn4)CC3)cc2=O)cc1F` [Example 6, 5-Chloro-4-(1-(5-chloropyrimidin-2-yl)piperidin-4-yloxy)-1-(3-fluoro-4-(methylsulfonyl)phenyl)pyridin-2(1H)-one] yielded an EC50 in data set [1] of 4 nM. Moreover, in the data set with male C57BL/6J mice, the “Minimally efficacious Dose” value is listed as 0.1 mg/kg and the “Glucose Lowering” value is reported as −36%. In data set [2], the half-life at 0.5 µM was found to be 0.65 h.

For the origin of these results see patent US8415367B2, “Pyrimidinylpiperidinyloxypyridinone analogues as GPR119 modulators” (Bristol-Myers Squibb Company, priority 2010, dated 2013).
